Assay results taken from patent publication US6667328B2, “Therapeutic agents for diabetes” (Fujimoto Brothers Co., Ltd., priority 2000, dated 2003).

How the values were obtained:
[1] = test system: fructose-induced hyperlipidemic rats; assay: Hypotriglyceridemic activity in fructose-induced hyperlipidemic rats; format: in vivo, Sprague Dawley rats; settings: fructose-loaded rats, 30 mg/kg p.o. once daily for 7 days; for inhibition in vivo at 30 mg/kg: Rattus norvegicus, po, 168 h, read-out: Reduction in Serum Triglyceride (%)
Procedure: The compounds were tested for a hypotriglyceridemic activity in fructose-induced hyperlipidemic rats in accordance with the method described in Nippon Yakurigaku Zasshi, 92 (3), 175-180 (1988). Sprague Dawley rats were grouped by the ranking method of body weight. Then, instead of drinking water, rats were given 75% fructose aqueous ad libitum for one week, thereby, resulting in the state of hypertriglyceridemia. The compounds of the present invention, suspended in 3% Arabic gum aqueous solution, and a dose of 30 mg/kg was orally administrated once daily for 7 days during the fructose-loading period. The control group of rats were given 3% Arabic gum aqueous solution only. Two hours later of the final administration, the rats were bled from the abdominal aorta to measure serum triglycerides and total cholesterol. The reduction rate (%) of each measurement compared to the control groups was calculated according to the equation indicated in EXAMPLE 4.

[2] = test system: 3T3-L1 preadipocyte cells; assay: Differentiation-inducing actions on adipose cells (oil red-O staining, absorbance at 490 nm); format: cell-based; settings: 3T3-L1, oil red-O extract absorbance at 490 nm, ratio to control group (1.0)
Procedure: The cloned cell line 3T3-L1 of the preadipocyte cells at the 9-20th generation were used. The cell suspension at a concentration of 2×10^4 cells/ml was added 500 μl/well in a 24 well microplate. Then, the microplates were cultured at 37° C. in the atmosphere of 5% CO2 for 4 days with D-MEM containing 5% inactivated fetal calf serum (hereinafter abbreviated as “FCS D-MEM”). Next, the following procedures were conducted.
(1) To test compound of this invention, 500 μl/well of the following solutions was added to each well:
1) test compound-containing medium (T-MEM) in which the test compound in a stock solution (30 mM in DMSO) was diluted with FCS D-MEM containing 0.1 μM dexamethazone and 100 ng/ml insulin (hereinafter abbreviated as DEX-Ins-FCS D-MEM);
2) FCS-D-MEM; 3) DEX-Ins-FCS D-MEM; 4) 0.1% DMSO-containing DEX-Ins-FCS D-MEM for me control wells.
(2) After above additions were done, the culture plates were incubated at 37° C. in 5% CO2 for 3 days. Then, the same operations as in the procedure (1) were repeated for exchange of the culture medium. The culture plates were incubated at 37° C. in 5% CO2 for further 3 days.
(3) After incubation, the culture medium was removed from the culture plates. Then, the FCS D-MEM was added to the FCS D-MEM-wells, and next the medium prepared for containing 100 ng/ml of insulin with the FCS D-MEM (hereinafter abbreviated as “Ins-FCS D-MEM”) was added at 500 μl/well to the T-MEM wells and DEX-Ins-FCS D-MEM wells. All culture plates were incubated for 4 days.
(4) After incubation, the culture medium was removed. For cell fixation, 500 μl/well of 10% formalin in neutral buffer was added, and left at the room temperature for approximately 20 minutes or longer. Then the formalin solution was removed, and 60% 2-propanol solution was added at 500 μl/well, then quickly removed, and the oil red-O staining solution was added at 250 μl/well. The culture plates were sealed with plate seals, and left at room temperature for 30 minutes or longer. After incubation, the staining solution was removed, and the 60% 2-propanol solution was added at 500 μl/well, and quickly removed. The cells were rinsed with water a few times, and then water drops were flipped away. A cell-lysis buffer was added at 500 μl/well, and the culture plates were sealed with plate seals, and left at 37° C. for 1 hour to extract the pigments. Next, 300 μl/well of the extract solution was transferred at a 96 well micro-plates, and then the absorbance of each extract was measured at wavelength of 490 nm.
The absorbance ratios of the respective test compounds-groups to the control group, the mean absorbance of which was designated as 1.0, are shown in Table 8. Based on the judgement that the absorbance higher than that of the control group indicates a greater differentiation-inducing activity of the test compound, the compounds of the present invention were determined to have the activity to induce differentiation of preadipocytes to adipocytes, resulting in elevating insulin sensitivity of organs. Thereby, this activity would confer the efficacy in the therapy of diabetes.

[3] = test system: Genetically diabetic db/db mice (C57BL/ksJ Jcl-dbm db/db mice); assay: Blood sugar lowering actions in genetically diabetic mice; format: in vivo; settings: serum glucose vs control group
Procedure: (§1) Genetically diabetic db/db mice (C57BL/ksJ Jcl-dbm db/db mice) older than 8 weeks were grouped depend on their blood sugar levels of the prior measurements in order to divide groups with almost equal mean value of the sugar level. The respective groups of db/db mice were designates as the following groups: the group given the compound of the present invention, the group of troglitazone, and the group given no administrating group. For the compounds of the present invention, two doses: 75 mg/kg and 150 mg/kg, and for troglitazone, a dose of 150 mg/kg were individually given to the mice as a forced oral administration once daily for 14 days successively. These agents were suspended in 3.0% Arabic gum solution for administration. To the control group, only the same volume of 3.0% Arabic gum solution was administered. On the next day of the final administration, each mouse was […] for sampling. The blood samples were subject to serum separation. The glucose level in the serum of each group was measured. Then, a reduction rate in a glucose level (%) compared to the control group was calculated with mean value of each group according to the equation below. […] [formula]

db/db mice = assay: Antihyperlipidemic activities in genetically diabetic mice; format: in vivo; settings: 150 mg/kg p.o. once daily for 14 days, serum
Procedure: as §1
In the same way as described in EXAMPLE 4, db/db mice were grouped in the manner by which the respective groups had almost equivalent mean blood sugar levels. The compounds 1, 3, 13, 21 and 22 of the present invention, suspended in 3.0% Arabic gum solution, were orally administrated, with a dose of 150 mg/kg, once daily for successive 14 days. The control group of mice were given the vehicle solution only. On the next day of the final administration, each mouse was bled for sampling. The blood was subjected for serum separation, and then subjected to measurements of β-lipoproteins, free fatty acids, and triglycerides. The reduction rate (%) of each measurement compared to the control group was calculated by the equation indicated in EXAMPLE 4. […] (Table 9).

[4] = test system: high cholesterol-fed hamsters; assay: Lipid lowering effects in high cholesterol-fed hamsters; format: in vivo, Syrian hamsters; settings: Example 9 (Table 12), 15 mg/kg p.o.
Description: According to the method described in Jpn Pharmacol Ther, 23 (suppl 4), s1047-1053 (1995), male Syrian hamstars were fed for 3 weeks with 1% cholesterol 10% coconut oil (W/W) supplemented diet, and thereby, became to be hypercholesterolemia models. Prior to administration of the compounds, under ether anesthesia, the hamsters were bled from the orbital vein for measurement of serum total cholesterol. They were grouped in the manner by which the respective groups had almost equal serum total cholesterol levels. The normal group of hamsters were fed ordinary diet. Thereafter, the compound 1 and bezafibrate were orally administered once daily at doses of 15 (for only compound 1), 30, 60 and 120 mg/kg for 7 days. Even during the treatment period, cholesterol loading was continued. Four hours later of the final administration, the hamsters were bled by cardiac puncture. The total cholesterol and triglycerides in the serum obtained were measured by the enzymatic method. The results are shown in Table 11 (the negative values mean elevation rates.)
The actions of the compounds of the present invention at a dose of 15 mg/kg were measured in the same method as described in EXAMPLE 8.

[5] = 75 mg/kg oral once daily for 14 days
[6] = 150 mg/kg oral once daily for 14 days

| Compound | inhibition in vivo at 30 mg/kg [1] [%] | Absorbance Ratio [2] | also measured |
| --- | --- | --- | --- |
| CCC(Oc1ccc(C)cc1)c1ccccc1 (stereo not drawn) [Compound 32] | 47 |  |  |
| CC(=Cc1ccc(/C=C2/SC(=NC#N)NC2=O)cc1)c1ccccc1 [Compound 4, 2-(N-Cyanoimino)-5-[(E)-4-(β-methylstyryl)benzylidene]thiazolidin-4-one] | 42 | 2.62 |  |
| N#CN=C1NC(=O)C(=Cc2cccc(OCCc3ccccc3)c2)S1 [Compound 12, 2-(N-Cyanoimino)-5-(3-phenethyloxybenzylidene)thiazolidin-4-one] | 59 | 1.74 |  |
| N#CN=C1NC(=O)C(=Cc2ccc(OCc3ccc4c(c3)OCO4)cc2)S1 [Compound 17, 2-(N-Cyanoimino)-5-[4-(1,3-benzodioxole-5-ylmethoxy)benzylidene]thiazolidin-4-one] | 37 |  |  |
| N#CN=C1NC(=O)/C(=C\c2ccc(C=Cc3ccccc3)cc2)S1.[Na] [Compound 63, 2-(N-Cyanoimino)-5-[(E)-4-stylylbenzylidene]thiazolidin-4-one Sodium Salt] |  |  | Reduction in Blood Glucose (%) [3, 5]: 32% |
| N#CN=C1NC(=O)C(=Cc2ccccc2OCCc2ccccc2)S1 [Compound 21, 2-(N-Cyanoimino)-5-(2-phenethyloxybenzylidene)thiazolidin-4-one] | 48 | 2.02 | Reduction Rate (%) Free Fatty Acids (db/db mice): 25%; Reduction Rate (%) Triglycerides (db/db mice): 41%; Reduction Rate (%) β-lipoproteins (db/db mice): 38% |
| N#CN=C1NC(=O)C(=Cc2ccc(Oc3ccccc3)cc2)S1 [Compound 22, 2-(N-Cyanoimino)-5-(4-phenoxybenzylidene)thiazolidin-4-one] | 65 | 1.73 | Reduction Rate (%) Free Fatty Acids (db/db mice): 41%; Reduction Rate (%) Triglycerides (db/db mice): 65%; Reduction Rate (%) β-lipoproteins (db/db mice): 56%; Reduction in Blood Glucose (%) [3, 5]: 16%; Reduction in Blood Glucose (%) [3, 6]: 34% |
| N#CN=C1NC(=O)/C(=C\c2ccc(C=Cc3ccccc3F)cc2)S1 [Compound 8, 2-(N-Cyanoimino)-5-[(E)-4-(2-fluorostyryl)benzylidene]thiazolidin-4-one] | 47 | 1.95 |  |
| Cc1ccc(C)c(Oc2ccc(C=C3SC(=NC#N)NC3=O)cc2)c1 [Compound 9, 2-(N-Cyanoimino)-5-[4-(2,5-dimethylphenoxy)benzylidene]thiazolidin-4-one] | 49 |  |  |
| N#CN=C1NC(=O)C(=Cc2ccc(OCCCc3ccccc3)cc2)S1 [Compound 5, 2-(N-Cyanoimino)-5-[4-(3-phenylpropoxy)benzylidene]thiazolidin-4-one] |  | 1.87 |  |
| N#CN=C1NC(=O)C(=Cc2ccc(OCc3ccc(Cl)cc3)cc2)S1 [Compound 19, 2-(N-Cyanoimino)-5-[4-(4-chlorobenzyloxy)benzylidene]thiazolidin-4-one] | 38 | 1.51 |  |
| CC(COc1ccc(C=C2SC(=NC#N)NC2=O)cc1)c1ccccc1 (stereo not drawn) [Compound 11, 2-(N-Cyanoimino)-5-[4-(2-phenylpropoxy)benzylidene]thiazolidin-4-one] | 62 |  |  |
| N#CN=C1NC(=O)C(=Cc2ccc(OCc3ccccc3)cc2)S1 [Compound 13] |  | 2.51 | Reduction Rate (%) Free Fatty Acids (db/db mice): 38%; Reduction Rate (%) Triglycerides (db/db mice): 70%; Reduction Rate (%) β-lipoproteins (db/db mice): 65%; Reduction in Serum Triglyceride (%) [1]: 55% |
| N#CN=C1NC(=O)C(=Cc2ccc(Oc3ccc(Cl)cc3)cc2)S1 [Compound 6, 2-(N-Cyanoimino)-5-[4-(4-chlorophenoxy)benzylidene]thiazolidine-4-one] | 84 |  |  |
| N#CN=C1NC(=O)C(=Cc2ccc(Sc3ccccc3)cc2)S1 [Compound 7, 2-(N-Cyanoimino)-5-(4-phenylthiobenzylidene)thiazolidin-4-one] | 60 | 1.93 |  |
| N#CN=C1NC(=O)C(=Cc2ccc(-c3cc4cc(Cl)ccc4o3)cc2)S1 [Compound 14, 2-(N-Cyanoimino)-5-[4-(5-chlorobenzofuran-2-yl)benzylidene]thiazolidin-4-one] | 36 |  |  |
| N#CN=C1NC(=O)C(=Cc2cccc(Oc3ccccc3)c2)S1 [Compound 16, 2-(N-Cyanoimino)-5-(3-phenoxybenzylidene)thiazolidin-4-one] | 54 | 1.18 |  |
| Cc1c(C)c2c(c(C)c1O)CCC(C)(COc1ccc(CC3SC(=O)NC3=O)cc1)O2 (stereo not drawn) [troglitazone, reference compound] |  |  | Reduction in Blood Glucose (%) [3, 6]: 18% |
| CC(=Cc1ccccc1)c1ccc(/C=C2/SC(=NC#N)NC2=O)cc1 [Compound 2, 2-(N-Cyanoimino)-5-[(E)-4-(α-methylstyryl)benzylidene]thiazolidin-4-one] | 67 | 1.57 | Reduction Rate (%) Total cholesterol [4]: 27%; Reduction Rate (%) Triglyceride [4]: 57% |
